What was measured:
Test in all cases: Fungicidal effect on infected agar nutrient media, colony diameter
Assay type in all cases: cell-based
[1] = tested on: Alternaria tenuis; details: 5th day after treatment, untreated control 36.8
Summary of the method: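 Agar media (70 mm diameter, 10 mm thick) infected with Alternaria tenuis, treated with EC formulations at 1, 10, 100 and 1000 ppm active ingredient. Fungicidal effect read on day 5 after treatment as fungal colony diameter.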

[2] = tested on: Sclerotinia sclerotinia; details: 3rd day after treatment, untreated control 41.7
Protocol: Agar nutrient media (Diameter 70 MM, thickness 10 mm) infected by Sclerotonia sclerotinia suspension are treated with 20 EC formulations prepared according to Example 27 and comprising 1, 10, 100 and 1000 ppm, respectively of the active ingredient of the Formula I. The fungicidal effect of the compositions is evaluated on the 3rd day after treatment by measuring the diameter of the Fungi colonies.

[3] = tested on: Penicillium cyclopium; details: 7th day after treatment, untreated 26.5
Summary of the method: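 Agar media (70 mm diameter, 10 mm thick) infected with Penicillium cyclopium were treated with EC formulations at 1, 10, 100 and 1000 ppm active ingredient. Fungal colony diameter was measured on day 7 after treatment.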

Structure (SMILES): CC1COP(=S)(OC(C)C(C)Cl)S1 (stereo not drawn) [Compound 31]
- Diameter of colony (mm) ([1]; 1 ppm): 36.0 mm
- Diameter of colony (mm) ([1]; 10 ppm): 23.6 mm
- Diameter of colony (mm) ([1]; 100 ppm): 8.1 mm
- Diameter of colony (mm) ([1]; 1000 ppm): 0 mm
- Diameter of colony (mm) ([2]; 1 ppm): 37.4 mm
- Diameter of colony (mm) ([2]; 10 ppm): 29.2 mm
- Diameter of colony (mm) ([2]; 100 ppm): 4.0 mm
- Diameter of colony (mm) ([2]; 1000 ppm): 0 mm
- Diameter of colony (mm) ([3]; 1 ppm): 23.6 mm
- Diameter of colony (mm) ([3]; 10 ppm): 14.9 mm
- Diameter of colony (mm) ([3]; 100 ppm): 9.0 mm
- Diameter of colony (mm) ([3]; 1000 ppm): 0 mm

Structure (SMILES): CC1OP(=S)(OCCBr)SC1C (stereo not drawn) [Compound 17]
- Diameter of colony (mm) ([1]; 1 ppm): 33.2 mm
- Diameter of colony (mm) ([1]; 10 ppm): 23.9 mm
- Diameter of colony (mm) ([1]; 100 ppm): 5.6 mm
- Diameter of colony (mm) ([1]; 1000 ppm): 0 mm
- Diameter of colony (mm) ([2]; 1 ppm): 40.1 mm
- Diameter of colony (mm) ([2]; 10 ppm): 30.2 mm
- Diameter of colony (mm) ([2]; 100 ppm): 1.0 mm
- Diameter of colony (mm) ([2]; 1000 ppm): 0 mm
- Diameter of colony (mm) ([3]; 1 ppm): 24.9 mm
- Diameter of colony (mm) ([3]; 10 ppm): 14.2 mm
- Diameter of colony (mm) ([3]; 100 ppm): 8.9 mm
- Diameter of colony (mm) ([3]; 1000 ppm): 0 mm

Structure (SMILES): CC(CCl)OP1(=S)OCCS1 (stereo not drawn) [Compound 10, 2-(0-1'-methyl-2'-chloroethyl)-2-thio-1,3,2-oxathiophospholane]
- Diameter of colony (mm) ([1]; 1 ppm): 33.9 mm
- Diameter of colony (mm) ([1]; 10 ppm): 21.6 mm
- Diameter of colony (mm) ([1]; 100 ppm): 5.8 mm
- Diameter of colony (mm) ([1]; 1000 ppm): 0 mm
- Diameter of colony (mm) ([2]; 1 ppm): 40.1 mm
- Diameter of colony (mm) ([2]; 10 ppm): 31.3 mm
- Diameter of colony (mm) ([2]; 100 ppm): 1.8 mm
- Diameter of colony (mm) ([2]; 1000 ppm): 0 mm
- Diameter of colony (mm) ([3]; 1 ppm): 21.3 mm
- Diameter of colony (mm) ([3]; 10 ppm): 19.0 mm
- Diameter of colony (mm) ([3]; 100 ppm): 6.8 mm
- Diameter of colony (mm) ([3]; 1000 ppm): 0 mm

Structure (SMILES): CCCCOP1(=S)OCCS1 (stereo not drawn) [Compound 59, 2-(0-n-butyl)-2-thio-1,3,2-oxathiophospholane]
- Diameter of colony (mm) ([1]; 1 ppm): 34.0 mm
- Diameter of colony (mm) ([1]; 10 ppm): 24.1 mm
- Diameter of colony (mm) ([1]; 100 ppm): 5.6 mm
- Diameter of colony (mm) ([1]; 1000 ppm): 0 mm
- Diameter of colony (mm) ([2]; 1 ppm): 34.3 mm
- Diameter of colony (mm) ([2]; 10 ppm): 28.5 mm
- Diameter of colony (mm) ([2]; 100 ppm): 4.0 mm
- Diameter of colony (mm) ([2]; 1000 ppm): 0 mm
- Diameter of colony (mm) ([3]; 1 ppm): 25.0 mm
- Diameter of colony (mm) ([3]; 10 ppm): 18.7 mm
- Diameter of colony (mm) ([3]; 100 ppm): 7.6 mm
- Diameter of colony (mm) ([3]; 1000 ppm): 0 mm

Structure (SMILES): CCCCOP1(=S)OCCS1 (stereo not drawn) [Compound 58]
- Diameter of colony (mm) ([1]; 1 ppm): 32.7 mm
- Diameter of colony (mm) ([1]; 10 ppm): 23.9 mm
- Diameter of colony (mm) ([1]; 100 ppm): 7.5 mm
- Diameter of colony (mm) ([1]; 1000 ppm): 0 mm
- Diameter of colony (mm) ([2]; 1 ppm): 36.2 mm
- Diameter of colony (mm) ([2]; 10 ppm): 29.1 mm
- Diameter of colony (mm) ([2]; 100 ppm): 1.9 mm
- Diameter of colony (mm) ([2]; 1000 ppm): 0 mm
- Diameter of colony (mm) ([3]; 1 ppm): 21.9 mm
- Diameter of colony (mm) ([3]; 10 ppm): 16.1 mm
- Diameter of colony (mm) ([3]; 100 ppm): 8.4 mm
- Diameter of colony (mm) ([3]; 1000 ppm): 0 mm

Structure (SMILES): CC(CCl)OP1(=S)OC(C)C(C)S1 (stereo not drawn) [Compound 34, 2-(0-1'-methyl-2'-chloroethyl)-2-thio-4,5-dimethyl-1,3,2-oxathiophospholane]
- Diameter of colony (mm) ([1]; 1 ppm): 30.3 mm
- Diameter of colony (mm) ([1]; 10 ppm): 25.9 mm
- Diameter of colony (mm) ([1]; 100 ppm): 5.7 mm
- Diameter of colony (mm) ([1]; 1000 ppm): 0 mm
- Diameter of colony (mm) ([2]; 1 ppm): 34.6 mm
- Diameter of colony (mm) ([2]; 10 ppm): 23.9 mm
- Diameter of colony (mm) ([2]; 100 ppm): 1.3 mm
- Diameter of colony (mm) ([2]; 1000 ppm): 0 mm
- Diameter of colony (mm) ([3]; 1 ppm): 19.7 mm
- Diameter of colony (mm) ([3]; 10 ppm): 16.5 mm
- Diameter of colony (mm) ([3]; 100 ppm): 4.9 mm
- Diameter of colony (mm) ([3]; 1000 ppm): 0 mm

Structure (SMILES): CC1CSP(=S)(OC(C)C(C)Cl)O1 (stereo not drawn) [Compound 37]
- Diameter of colony (mm) ([1]; 1 ppm): 30.8 mm
- Diameter of colony (mm) ([1]; 10 ppm): 21.9 mm
- Diameter of colony (mm) ([1]; 100 ppm): 5.6 mm
- Diameter of colony (mm) ([1]; 1000 ppm): 0 mm
- Diameter of colony (mm) ([2]; 1 ppm): 39.2 mm
- Diameter of colony (mm) ([2]; 10 ppm): 27.1 mm
- Diameter of colony (mm) ([2]; 100 ppm): 0 mm
- Diameter of colony (mm) ([2]; 1000 ppm): 0 mm
- Diameter of colony (mm) ([3]; 1 ppm): 19.9 mm
- Diameter of colony (mm) ([3]; 10 ppm): 17.5 mm
- Diameter of colony (mm) ([3]; 100 ppm): 6.6 mm
- Diameter of colony (mm) ([3]; 1000 ppm): 0 mm

Structure (SMILES): CC(CI)OP1(=S)OC(C)CS1 (stereo not drawn) [Compound 21, 2-(0-1'-methyl-2'-iodoethyl)-2-thio-5-methyl-1,3,2-oxathiophospholane]
- Diameter of colony (mm) ([1]; 1 ppm): 30.9 mm
- Diameter of colony (mm) ([1]; 10 ppm): 24.2 mm
- Diameter of colony (mm) ([1]; 100 ppm): 7.2 mm
- Diameter of colony (mm) ([1]; 1000 ppm): 0 mm
- Diameter of colony (mm) ([2]; 1 ppm): 33.8 mm
- Diameter of colony (mm) ([2]; 10 ppm): 25.8 mm
- Diameter of colony (mm) ([2]; 100 ppm): 2.50 mm
- Diameter of colony (mm) ([2]; 1000 ppm): 0 mm
- Diameter of colony (mm) ([3]; 1 ppm): 23.7 mm
- Diameter of colony (mm) ([3]; 10 ppm): 20.0 mm
- Diameter of colony (mm) ([3]; 100 ppm): 6.9 mm
- Diameter of colony (mm) ([3]; 1000 ppm): 0 mm

Structure (SMILES): CCCOP1(=S)OC(C)CS1 (stereo not drawn) [Compound 47, 2-(0-n-propyl)-2-thio-5-methyl-1,3,2-oxathiophospholane]
- Diameter of colony (mm) ([1]; 1 ppm): 33.5 mm
- Diameter of colony (mm) ([1]; 10 ppm): 25.7 mm
- Diameter of colony (mm) ([1]; 100 ppm): 7.0 mm
- Diameter of colony (mm) ([1]; 1000 ppm): 0 mm
- Diameter of colony (mm) ([2]; 1 ppm): 33.9 mm
- Diameter of colony (mm) ([2]; 10 ppm): 30.2 mm
- Diameter of colony (mm) ([2]; 100 ppm): 3.9 mm
- Diameter of colony (mm) ([2]; 1000 ppm): 0 mm
- Diameter of colony (mm) ([3]; 1 ppm): 23.8 mm
- Diameter of colony (mm) ([3]; 10 ppm): 20.1 mm
- Diameter of colony (mm) ([3]; 100 ppm): 8.3 mm
- Diameter of colony (mm) ([3]; 1000 ppm): 0 mm

Structure (SMILES): CC(C)CCOP1(=S)OCCS1 (stereo not drawn) [Compound 67]
- Diameter of colony (mm) ([1]; 1 ppm): 35.4 mm
- Diameter of colony (mm) ([1]; 10 ppm): 23.8 mm
- Diameter of colony (mm) ([1]; 100 ppm): 5.3 mm
- Diameter of colony (mm) ([1]; 1000 ppm): 0 mm
- Diameter of colony (mm) ([2]; 1 ppm): 36.3 mm
- Diameter of colony (mm) ([2]; 10 ppm): 29.6 mm
- Diameter of colony (mm) ([2]; 100 ppm): 3.6 mm
- Diameter of colony (mm) ([2]; 1000 ppm): 0 mm
- Diameter of colony (mm) ([3]; 1 ppm): 25.1 mm
- Diameter of colony (mm) ([3]; 10 ppm): 19.3 mm
- Diameter of colony (mm) ([3]; 100 ppm): 7.0 mm
- Diameter of colony (mm) ([3]; 1000 ppm): 0 mm

Structure (SMILES): CC(CCl)OP1(=S)OC(C)CS1 (stereo not drawn) [Compound 19, 2-(0-1'-methyl-2'-chloroethyl)-2-thio-5-methyl-1,3,2-oxathiophospholane]
- Diameter of colony (mm) ([1]; 1 ppm): 32.3 mm
- Diameter of colony (mm) ([1]; 10 ppm): 21.7 mm
- Diameter of colony (mm) ([1]; 100 ppm): 4.3 mm
- Diameter of colony (mm) ([1]; 1000 ppm): 0 mm
- Diameter of colony (mm) ([2]; 1 ppm): 36.5 mm
- Diameter of colony (mm) ([2]; 10 ppm): 27.4 mm
- Diameter of colony (mm) ([2]; 100 ppm): 3.9 mm
- Diameter of colony (mm) ([2]; 1000 ppm): 0 mm
- Diameter of colony (mm) ([3]; 1 ppm): 21.5 mm
- Diameter of colony (mm) ([3]; 10 ppm): 15.6 mm
- Diameter of colony (mm) ([3]; 100 ppm): 5.5 mm
- Diameter of colony (mm) ([3]; 1000 ppm): 0 mm

From US4877893A, “Process for the preparation of 2-(O-alkyl)-2-thio-1,3,2-oxathiophospholanes” (priority 1987, dated 1989)
